# Assay results published in patent publication US20240174649A1, “CULLIN-RING E3 UBIQUITIN LIGASE 4 INHIBITOR COMPOUNDS AND METHODS OF THEIR USE” (ICAHN SCHOOL OF MEDICINE AT MOUNT SINAI, priority 2021, published 2024).
# Tests used:
# [1] = biological target: T1, ROC1-CUL1 CTD (Homo sapiens (Human), UniProt Q13616); experiment: Ligand binding by MST; conditions: Table 5, MST; read-out: E3 binding Kd
# Procedure: E3 ligase complex (˜2 nmol) was labeled with fluorescent dye using Monolith NT Protein Labeling Kit Red-NHS (Nanotemper) in the presence of 20 mM MES pH 6.0 and 150 mM NaCl. Excess dye was removed using the included gravity flow column and eluted in storage buffer containing 20 mM Tris-HCl, pH 7.4, 150 mM NaCl, and 10% glycerol. The fluorescent E3 complex (˜0.01-0.06 μM) was mixed with increasing amount of compound in a buffer (20 μl) that contains phosphate-buffered saline, 0.1% TWEEN-20 and 2% prionex. Following incubation at room temperature for 30 min, the reaction mixture loaded into premium coated capillaries and analyzed in the Monolith NT.115 machine (Nanotemper). Thermophoresis was recorded for each sample and binding curve was generated and Kd was calculated using the included software. For reactions where significant ligand specific fluorescence quenching occurred (verified by manufacturer's SDS Denaturation-test protocol), the initial fluorescence quenching data was used directly to calculate the binding curve and Kd.
# [2] = biological target: E3 CRL4^CRBN (Homo sapiens (Human), UniProt Q13619); experiment: Lenalidomide-dependent ubiquitination of CK1α by CRL4^CRBN; type: biochemical; conditions: at 30 μM
# Chain of E3 CRL4^CRBN (Q13619 whole entry): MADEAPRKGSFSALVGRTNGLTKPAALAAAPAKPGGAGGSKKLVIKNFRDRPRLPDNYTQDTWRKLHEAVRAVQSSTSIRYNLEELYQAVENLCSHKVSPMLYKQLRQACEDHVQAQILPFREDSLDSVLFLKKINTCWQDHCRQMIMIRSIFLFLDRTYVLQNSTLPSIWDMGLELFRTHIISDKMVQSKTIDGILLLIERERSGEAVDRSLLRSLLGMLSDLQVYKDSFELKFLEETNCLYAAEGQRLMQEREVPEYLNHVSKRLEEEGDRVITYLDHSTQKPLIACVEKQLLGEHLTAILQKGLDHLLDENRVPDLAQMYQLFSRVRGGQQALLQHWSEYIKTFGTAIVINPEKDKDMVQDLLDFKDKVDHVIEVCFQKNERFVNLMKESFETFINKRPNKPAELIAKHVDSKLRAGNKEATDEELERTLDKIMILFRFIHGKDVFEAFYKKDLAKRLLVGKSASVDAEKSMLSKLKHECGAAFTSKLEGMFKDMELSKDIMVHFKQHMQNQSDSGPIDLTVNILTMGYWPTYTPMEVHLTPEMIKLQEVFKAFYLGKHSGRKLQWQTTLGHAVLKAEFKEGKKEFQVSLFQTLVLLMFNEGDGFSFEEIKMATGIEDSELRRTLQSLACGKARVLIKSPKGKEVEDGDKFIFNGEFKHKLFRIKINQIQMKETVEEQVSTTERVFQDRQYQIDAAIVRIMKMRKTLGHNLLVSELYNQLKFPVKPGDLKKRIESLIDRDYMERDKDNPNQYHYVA
# Chain of E3 CRL4^CRBN (P62877 whole entry partner): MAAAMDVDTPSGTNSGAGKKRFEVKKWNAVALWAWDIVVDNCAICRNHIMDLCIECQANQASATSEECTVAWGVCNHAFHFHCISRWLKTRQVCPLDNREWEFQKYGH
# Chain of E3 CRL4^CRBN (Q16531 whole entry partner): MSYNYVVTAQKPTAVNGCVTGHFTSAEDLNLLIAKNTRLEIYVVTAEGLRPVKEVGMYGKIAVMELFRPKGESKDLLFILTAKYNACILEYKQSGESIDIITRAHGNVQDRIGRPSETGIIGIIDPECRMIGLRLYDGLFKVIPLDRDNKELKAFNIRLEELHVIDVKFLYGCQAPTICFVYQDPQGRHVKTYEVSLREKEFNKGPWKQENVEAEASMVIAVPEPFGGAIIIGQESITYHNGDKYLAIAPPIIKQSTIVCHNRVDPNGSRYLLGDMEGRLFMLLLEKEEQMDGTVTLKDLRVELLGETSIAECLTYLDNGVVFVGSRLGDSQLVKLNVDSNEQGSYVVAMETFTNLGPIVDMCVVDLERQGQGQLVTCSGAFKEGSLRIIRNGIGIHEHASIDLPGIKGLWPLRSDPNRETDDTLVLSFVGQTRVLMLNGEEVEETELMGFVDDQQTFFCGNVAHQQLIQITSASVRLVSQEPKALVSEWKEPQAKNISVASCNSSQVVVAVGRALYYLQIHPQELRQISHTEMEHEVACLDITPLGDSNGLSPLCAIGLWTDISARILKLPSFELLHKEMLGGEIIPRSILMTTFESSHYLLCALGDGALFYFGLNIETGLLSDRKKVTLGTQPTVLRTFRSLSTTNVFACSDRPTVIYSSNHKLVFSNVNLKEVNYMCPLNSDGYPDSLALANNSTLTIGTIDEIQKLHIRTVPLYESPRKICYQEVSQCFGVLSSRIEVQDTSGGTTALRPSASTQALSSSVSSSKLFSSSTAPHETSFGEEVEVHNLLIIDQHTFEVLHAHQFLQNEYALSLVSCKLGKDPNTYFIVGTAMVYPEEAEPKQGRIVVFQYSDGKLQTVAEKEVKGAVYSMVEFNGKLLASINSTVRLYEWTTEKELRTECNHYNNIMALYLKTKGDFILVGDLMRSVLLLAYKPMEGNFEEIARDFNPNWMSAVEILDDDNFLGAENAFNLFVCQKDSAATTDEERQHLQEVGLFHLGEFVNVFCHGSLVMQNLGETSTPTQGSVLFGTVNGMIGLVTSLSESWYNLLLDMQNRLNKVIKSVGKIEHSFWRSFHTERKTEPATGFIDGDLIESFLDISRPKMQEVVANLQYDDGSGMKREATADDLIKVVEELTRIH
# Chain of E3 CRL4^CRBN (Q96SW2 whole entry partner): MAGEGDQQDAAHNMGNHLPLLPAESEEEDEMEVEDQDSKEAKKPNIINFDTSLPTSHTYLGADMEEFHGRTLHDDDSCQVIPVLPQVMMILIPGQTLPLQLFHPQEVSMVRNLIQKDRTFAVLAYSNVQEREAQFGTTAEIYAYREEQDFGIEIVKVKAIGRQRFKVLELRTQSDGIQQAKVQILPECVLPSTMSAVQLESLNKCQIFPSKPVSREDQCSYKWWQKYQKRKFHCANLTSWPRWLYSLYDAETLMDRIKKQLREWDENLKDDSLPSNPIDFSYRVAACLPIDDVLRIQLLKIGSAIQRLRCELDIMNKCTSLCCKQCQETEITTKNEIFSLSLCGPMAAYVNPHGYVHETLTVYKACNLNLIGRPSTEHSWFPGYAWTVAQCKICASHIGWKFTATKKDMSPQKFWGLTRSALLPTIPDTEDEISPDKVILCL
# Procedure: To prepare Flag-CK1α as a substrate for ubiquitination experiments described in FIGS. 2A-E, the expression vector (purchased from Addgene) was introduced to HEK-293T cells by transfection using Lipofectamine RNAIMAX (ThermoFisher) according to manufacturer's protocols. Cell extracts were prepared and the concentration of Flag-CK1α was determined using immunoblot analysis with purified GST-CK1α (Sigma) as a standard. Typically, 50-100 μl of extracts was used to attach to ˜15 μl of M2 beads (Sigma) at 4° C. for 2 hours. Unbound materials were removed by washing (first three times with a washing buffer containing 50 mM Tris-HCl, pH8.0, 1% Triton X-100, 0.5M NaCl, and then twice with buffer A plus 50 mM NaCl) and the resulting beads were used in the ubiquitination assay (15 μl). The concentration of Flag-CK1α was determined to be ˜100 nM.
# Immobilized, Flag-CK1α-containing beads were initially incubated with a reaction mixture (10 μl) containing 50 mM Tris-HCl (pH7.4), 0.5 mM DTT, 0.1 mg/ml of BSA, 5 mM MgCl2, 100 nM CRL4^CRBN, 1 μM Lenalidomide (Selleckchem), 1 μM Fluorescein-Ub, 100 nM E1, and 1 μM UbcH5c. ATP (20 mM) was added last to initiate the reaction. The reaction was incubated on a thermomixer (1,300 rpm; Eppendorf) at 37° C. for 5 min. The resulting beads were then added with a second reaction mixture (5 μl) containing 50 mM Tris-HCl (pH7.4), 0.5 mM DTT, 0.1 mg/ml of BSA, 5 mM MgCl2, 4 μM I-Ub-Q31C/K48R, and 1 μM Cdc34b, in the presence or absence of E3 inhibitors as specified. The reaction was incubated on a thermomixer at 37° C. for times as indicated. The concentrations of enzymes, Ubs, and compounds stated above were adjusted based on a final volume of 15 μl. The beads were then washed using conditions as described above. Materials eluted from the beads were separated by 4-20% SDS-PAGE followed by detection with fluorescence scanning (Typhoon 9500) or immunoblot using anti-CK1α antibody (Abcam). […]
# [3] = biological target: ROC1-CUL1 (Homo sapiens (Human), UniProt Q13616); experiment: Gel-based di-Ub synthesis; type: biochemical
# Chain of ROC1-CUL1 (Q13616 whole entry): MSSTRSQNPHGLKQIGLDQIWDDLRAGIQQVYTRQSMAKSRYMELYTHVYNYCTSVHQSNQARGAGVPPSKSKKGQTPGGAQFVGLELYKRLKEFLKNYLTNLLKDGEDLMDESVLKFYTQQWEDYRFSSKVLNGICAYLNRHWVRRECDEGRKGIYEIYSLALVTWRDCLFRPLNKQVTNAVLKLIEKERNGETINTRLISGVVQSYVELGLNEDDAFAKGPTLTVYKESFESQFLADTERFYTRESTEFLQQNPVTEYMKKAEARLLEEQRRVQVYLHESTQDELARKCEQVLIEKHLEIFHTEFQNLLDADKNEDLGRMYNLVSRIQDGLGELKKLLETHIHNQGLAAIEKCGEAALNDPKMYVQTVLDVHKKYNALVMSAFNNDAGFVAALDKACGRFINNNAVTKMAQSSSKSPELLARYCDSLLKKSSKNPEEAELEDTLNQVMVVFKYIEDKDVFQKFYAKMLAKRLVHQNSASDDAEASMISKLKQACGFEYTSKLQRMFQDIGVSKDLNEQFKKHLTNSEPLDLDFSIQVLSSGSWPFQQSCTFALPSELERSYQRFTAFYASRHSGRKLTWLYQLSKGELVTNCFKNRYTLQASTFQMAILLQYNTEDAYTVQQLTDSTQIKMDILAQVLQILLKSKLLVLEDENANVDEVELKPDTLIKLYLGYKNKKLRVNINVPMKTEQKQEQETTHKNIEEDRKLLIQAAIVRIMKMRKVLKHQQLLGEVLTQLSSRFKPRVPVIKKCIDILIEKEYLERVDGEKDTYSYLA
# Chain of ROC1-CUL1 (P62877 whole entry partner): as the sequence (P62877 whole entry partner) above
# Procedure: For the experiment shown in FIG. 7 and FIGS. 8A-B, the di-Ub synthesis reaction was carried out by preassembling the donor Ub mix. The donor Ub mixture (5 μl) contained 50 mM Tris HCl (pH 7.4), 5 mM MgCl2, 2 mM ATP, 0.5 mM DTT, 0.1 mg/mL BSA, 1 μM Ub-NC-I555, 0.1 μM E1, and 2 μM Cdc34b. The reaction was incubated for 5 min at 37° C. Compounds, in the amounts indicated, were added followed by the addition of ROC1-CUL1 (or related E3 subcomplex) in amounts as indicated and 10 μM PK-Ub (1-74) (as a receptor). The final volume was adjusted to 10 μl. The reaction was incubated for 10 min at 37° C.
# For the experiments shown in FIG. 8C and FIG. 9, the reaction was assembled in a 10-μl mixture containing 50 mM Tris HCl (pH 7.4), 5 mM MgCl2, 0.5 mM DTT, 0.1 mg/mL BSA, 0.05 μM Ub-NC-I555, 2,5 μM PK-Ub (1-74), 0.1 μM E1, 1 μM Cdc34b, and 80 nM ROC1-CUL1 with or without compound. The reaction was initiated by the addition of 2 mM ATP. The products were separated by 4-20% SDS/PAGE and were visualized and quantified on a Typhoon FLA 9500 laser scanner (GE).
# [4] = biological target: T1, ROC1-CUL1 CTD; experiment: FRET K48 di-Ub synthesis assay; type: biochemical; conditions: HTS screening conditions, read-out: inhibition of the reaction
# T1 sequence (Q13616 411-776): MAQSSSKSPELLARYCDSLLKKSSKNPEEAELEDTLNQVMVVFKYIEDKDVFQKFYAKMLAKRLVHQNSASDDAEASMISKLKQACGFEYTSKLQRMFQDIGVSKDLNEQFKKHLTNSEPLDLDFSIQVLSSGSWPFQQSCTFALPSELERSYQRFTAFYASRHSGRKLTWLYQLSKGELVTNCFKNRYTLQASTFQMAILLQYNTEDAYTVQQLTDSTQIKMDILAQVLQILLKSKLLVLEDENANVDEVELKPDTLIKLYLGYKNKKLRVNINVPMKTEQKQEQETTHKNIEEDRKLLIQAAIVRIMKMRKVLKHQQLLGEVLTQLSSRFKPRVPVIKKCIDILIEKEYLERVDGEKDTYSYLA
# T1 sequence (P62877 whole entry partner): as the sequence (P62877 whole entry partner) above
inhibition at 0.8 µM ([4]; 0.8 μM),inhibition at 5 µM ([4]; 5 μM),Structure (SMILES),Kd [1],inhibition of ubiquitination of CK1α [2],discharge of Cdc34-Ub and production of Ub2 by ROC1-CUL1 [3]
,,"O=c1c(Oc2ccccc2)c(C(F)(F)F)oc2c(O)c(O)ccc12 [#33, 7,8-dihydroxy-3-phenoxy-2-(trifluoromethyl)-4H-chromen-4-one]",1840 nM,Significant inhibitory effects,showed inhibition
50%,100%,"Cc1ccc(C(=O)Nc2ccc(S(=O)(=O)O)c3cc(S(=O)(=O)O)cc(S(=O)(=O)O)c23)cc1NC(=O)c1cccc(NC(=O)Nc2cccc(C(=O)Nc3cc(C(=O)Nc4ccc(S(=O)(=O)O)c5cc(S(=O)(=O)O)cc(S(=O)(=O)O)c45)ccc3C)c2)c1 [Suramin, suramin]",,,
